Measurements taken from US11970498B2, “CDK2 inhibitors” (BLUEPRINT MEDICINES CORPORATION, priority 2021, dated 2024).

Columns and labels:
[1] = molecular target: T1, CDK1/Cyclin B1, GST-tag (Homo sapiens, UniProt P06493); assay: CDK1/Cyclin B1 biochemical phosphorylation assay (Caliper mobility shift); conditions: apparent IC50; 1.0 mM ATP or ATP Km; 1.5 nM enzyme; 25° C.
T1 construct: GST
In short: (§1)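 Caliper electrophoretic separation of substrate and phosphopeptide gave apparent IC50s. Enzymes: CDK1/Cyclin B1 GST-tag 1.5 nM, CDK2/Cyclin E 1.25 nM; ATP 1.0 mM or at Km; 7.5 µM FL-peptide; pH 7.5 HEPES buffer, 1% DMSO; room temperature until 10–20% phosphorylated, then EDTA quench.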

[2] = molecular target: CDK2/Cyclin E (Homo sapiens, UniProt P24941); assay: CDK2/Cyclin E biochemical phosphorylation assay (Caliper mobility shift); conditions: apparent IC50; 1.0 mM ATP or ATP Km; 1.25 nM enzyme; 25° C.; read-out: CDK2/cyclin E1 IC50
In short: as §1

T1 sequence (P06493 whole entry): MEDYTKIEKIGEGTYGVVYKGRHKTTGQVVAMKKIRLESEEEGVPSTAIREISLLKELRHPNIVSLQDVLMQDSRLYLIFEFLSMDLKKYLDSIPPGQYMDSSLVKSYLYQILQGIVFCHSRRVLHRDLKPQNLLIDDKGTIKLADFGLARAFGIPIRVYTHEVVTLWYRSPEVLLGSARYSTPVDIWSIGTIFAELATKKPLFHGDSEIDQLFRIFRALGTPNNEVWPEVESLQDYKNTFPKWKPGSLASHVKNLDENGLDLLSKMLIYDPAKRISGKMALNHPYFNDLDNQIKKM
T1 sequence (P14635 whole entry partner): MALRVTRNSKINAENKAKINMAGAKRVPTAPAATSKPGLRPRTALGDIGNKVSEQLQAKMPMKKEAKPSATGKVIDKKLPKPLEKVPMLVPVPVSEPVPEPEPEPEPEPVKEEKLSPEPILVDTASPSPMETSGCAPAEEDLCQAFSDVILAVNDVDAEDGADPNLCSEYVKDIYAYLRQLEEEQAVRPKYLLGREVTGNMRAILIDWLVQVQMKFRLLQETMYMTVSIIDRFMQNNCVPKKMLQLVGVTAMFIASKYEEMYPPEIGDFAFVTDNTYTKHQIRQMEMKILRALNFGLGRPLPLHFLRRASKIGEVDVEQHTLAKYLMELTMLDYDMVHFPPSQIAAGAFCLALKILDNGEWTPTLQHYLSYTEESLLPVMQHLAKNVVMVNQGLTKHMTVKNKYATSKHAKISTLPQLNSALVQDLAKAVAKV

| SMILES | IC50 [1] [nM] | IC50 [2] [nM] |
| --- | --- | --- |
| COc1cc(Nc2cnc3cnn([C@@H](C)c4cc(F)ccn4)c3n2)n[nH]1 (single isomer, unassigned) [Example 187, (R)-1-(1-(4-fluoropyridin-2-yl)ethyl)-N-(5-methoxy-1H-pyrazol-3-yl)-1H-pyrazolo[3,4-b]pyrazin-6-amine or (S)-1-(1-(4-fluoropyridin-2-yl)ethyl)-N-(5-methoxy-1H-pyrazol-3-yl)-1H-pyrazolo[3,4-b]pyrazin-6-amine] | ≥ 500 | > 100 |
| CC1(C)C[C@H](Cn2ncc3ncc(Nc4cc(OC(F)F)[nH]n4)nc32)C(=O)N1 (single isomer, unassigned) [Example 185, (S)-3-((6-((5-(difluoromethoxy)-1H-pyrazol-3-yl)amino)-1H-pyrazolo[3,4-b]pyrazin-1-yl)methyl)-5,5-dimethylpyrrolidin-2-one or (R)-3-((6-((5-(difluoromethoxy)-1H-pyrazol-3-yl)amino)-1H-pyrazolo[3,4-b]pyrazin-1-yl)methyl)-5,5-dimethylpyrrolidin-2-one] | ≥ 500 | 30 to 100 |
| Cc1nn(CC2CCOCC2)c2nc(Nc3cc(OC(F)F)[nH]n3)cnc12 [Example 87, N-(5-(difluoromethoxy)-1H-pyrazol-3-yl)-3-methyl-1-((tetrahydro-2H-pyran-4-yl)methyl)-1H-pyrazolo[3,4-b]pyrazin-6-amine] | 100 to 500 | ≤ 10 |
| C[C@@H]([C@@H]1CCOC1)n1ncc2ncc(Nc3cc(OC(F)F)[nH]n3)nc21 (single isomer, unassigned) [Example 9] | ≥ 500 | ≤ 10 |
| FC(F)Oc1cc(Nc2cnc3cnn(C[C@H]4CCOC4)c3n2)n[nH]1 (single isomer, unassigned) [Example 143, (R)-N-(5-(difluoromethoxy)-1H-pyrazol-3-yl)-1-((tetrahydrofuran-3-yl)methyl)-1H-pyrazolo[3,4-b]pyrazin-6-amine or (S)-N-(5-(difluoromethoxy)-1H-pyrazol-3-yl)-1-((tetrahydrofuran-3-yl)methyl)-1H-pyrazolo[3,4-b]pyrazin-6-amine] | ≥ 500 | 10 to 20 |
| Fc1ccc(Cn2ncc3ncc(Nc4cc(OC(F)F)[nH]n4)nc32)cn1 [Example 41, N-(5-(difluoromethoxy)-1H-pyrazol-3-yl)-1-((6-fluoropyridin-3-yl)methyl)-1H-pyrazolo[3,4-b]pyrazin-6-amine] | ≥ 500 | ≤ 10 |
| N#C[C@@]1(Cn2ncc3ncc(Nc4cc(OC(F)F)[nH]n4)nc32)CCOC1 (single isomer, unassigned) [Example 169, (S)-3-((6-((5-(difluoromethoxy)-1H-pyrazol-3-yl)amino)-1H-pyrazolo[3,4-b]pyrazin-1-yl)methyl)tetrahydrofuran-3-carbonitrile or (R)-3-((6-((5-(difluoromethoxy)-1H-pyrazol-3-yl)amino)-1H-pyrazolo[3,4-b]pyrazin-1-yl)methyl)tetrahydrofuran-3-carbonitrile] | ≥ 500 | 20 to 30 |
| FC(F)Oc1cc(Nc2cnc3cnn([C@H](C4CCOCC4)C4CC4)c3n2)n[nH]1 (single isomer, unassigned) [Example 157, (S)-1-(cyclopropyl(tetrahydro-2H-pyran-4-yl)methyl)-N-(5-(difluoromethoxy)-1H-pyrazol-3-yl)-1H-pyrazolo[3,4-b]pyrazin-6-amine or (R)-1-(cyclopropyl(tetrahydro-2H-pyran-4-yl)methyl)-N-(5-(difluoromethoxy)-1H-pyrazol-3-yl)-1H-pyrazolo[3,4-b]pyrazin-6-amine] | ≥ 500 | 30 to 100 |
| C[C@@H]([C@H]1CCCOC1)n1ncc2ncc(Nc3cc(OC(F)F)[nH]n3)nc21 (single isomer, unassigned) [Example 217] | ≥ 500 | 30 to 100 |
